Measured values reported in publication PMC6273194, “Synthesis and Evaluation of Aminothiazole-Paeonol Derivatives as Potential Anticancer Agents” (Molecules, 2016).
Read-outs that look alike come from different tables or passages of the source.

Assays:
BALB/3T3 cells [1] = experiment: MTT cell viability assay, embryonic fibroblast BALB/3T3; type: cell-based; settings: Mus musculus, BALB/3T3 fibroblasts, 48 h
Description: (§1) Cell lines, including human gastric adenocarcinoma (AGS), human cervix adenocarcinoma (HeLa), human pancreas adenocarcinoma (PaTu8988t), human colorectal adenocarcinoma (HT-29), human glioblastoma (U87-MG), human lung adenocarcinoma (A549), mouse colon carcinoma (CT26.WT) cells and embryonic fibroblast (BALB/3T3) were purchased from Bioresource Collection and Research Center (BCRC, Taiwan) to evaluate anticancer activity of aminothiazole-paeonol derivatives. Five cell lines were cultured in different media from Gibco (Life Technologies, Grand Island, NY, USA) and Hyclone (GE Healthcare Life Science). Cells were cultured in 90% medium mixed with 10% serum at 37 °C in humidified atmosphere with 5% CO2 and grown in T-75 flask with a feeding cycle of two to three days. The composition and procedures of preparing culture media for different cell lines were followed by instruction manual of suppliers.
(§2) The different cell lines were seeded into 96-well tissue culture plates at a concentration of 5 × 10^3 cells/100 µL/well overnight. Subsequently, the cells were treated with serial concentrations of seven paeonol derivatives. After 48 h of incubation, cell viability of each cell line was determined by MTT colorimetric assay. Briefly, 100 µL of 2 mg/mL MTT reagent (Sigma-Aldrich, St. Louis, MO, USA) was added to each well and incubated for 4 h at 37 °C. Later, the medium was aspirated and 100 µL of dimethyl sulphoxide (DMSO) added to each well; finally, the OD595 of each well was measured by ELISA reader (TECAN, Wien, Austria).

[2] = system: human gastric adenocarcinoma (AGS) cells; experiment: MTT cell viability assay, AGS; type: cell-based; settings: 48 h
Description: as §1, §2

[3] = system: human cervix adenocarcinoma (HeLa) cells; experiment: MTT cell viability assay, HeLa; type: cell-based; settings: 48 h
Description: as §1, §2

[4] = system: human pancreas adenocarcinoma (PaTu8988t) cells; experiment: MTT cell viability assay, PaTu8988t; type: cell-based; settings: PaTu 8988t, 48 h
Description: as §1, §2

[5] = system: human colorectal adenocarcinoma (HT-29) cells; experiment: MTT cell viability assay, HT-29; type: cell-based; settings: HT-29, 48 h
Description: as §1, §2

[6] = system: human glioblastoma (U87-MG) cells; experiment: MTT cell viability assay, U87-MG; type: cell-based; settings: U-87 MG, 48 h
Description: as §1, §2

[7] = system: human lung adenocarcinoma (A549) cells; experiment: MTT cell viability assay, A549; type: cell-based; settings: A549, 48 h
Description: as §1, §2

[8] = system: mouse colon carcinoma (CT26.WT) cells; experiment: MTT cell viability assay, CT26.WT; type: cell-based; settings: 48 h
Description: as §1, §2

BALB/3T3 cells [9] = settings: BALB/3T3, 72 h after treatment; ref [25],[26],[27],[28],[29],[30],[31],[32]; cited from earlier work
[10] = system: human gastric adenocarcinoma (AGS) cells; settings: 24 h after treatment, ref [25],[26],[27],[28],[29],[30],[31],[32]; cited from earlier work
[11] = system: human cervix adenocarcinoma (HeLa) cells; settings: 48 h after treatment, ref [25],[26],[27],[28],[29],[30],[31],[32]; cited from earlier work
[12] = system: human pancreas adenocarcinoma (PaTu8988t) cells; settings: 48 h after treatment, ref [25],[26],[27],[28],[29],[30],[31],[32]; cited from earlier work
[13] = system: human colorectal adenocarcinoma (HT-29) cells; settings: HT-29, 48 h after treatment; ref [25],[26],[27],[28],[29],[30],[31],[32]; cited from earlier work
[14] = system: human glioblastoma (U87-MG) cells; settings: 48 h after treatment, ref [25],[26],[27],[28],[29],[30],[31],[32]; cited from earlier work
[15] = system: human lung adenocarcinoma (A549) cells; settings: A549, 48 h after treatment; ref [25],[26],[27],[28],[29],[30],[31],[32]; cited from earlier work
[16] = system: mouse colon carcinoma (CT26.WT) cells; settings: 72 h after treatment, ref [25],[26],[27],[28],[29],[30],[31],[32]; cited from earlier work

IC50 [2] [µM] | IC50 [3] [µM] | IC50 [4] [µM] | IC50 [5] [µM] | IC50 [6] [µM] | IC50 [7] [µM] | IC50 [8] [µM] | SMILES | IC50 (BALB/3T3 cells [1]) [µM] | IC50 (BALB/3T3 cells [9]) [µM] | IC50 [10] [µM] | IC50 [11] [µM] | IC50 [12] [µM] | IC50 [13] [µM] | IC50 [14] [µM] | IC50 [15] [µM] | IC50 [16] [µM]
7.2 | 13.8 | 31.4 | 11.2 | > 50 | > 50 | > 50 | COc1ccc(-c2csc(NS(=O)(=O)c3ccc(F)cc3)n2)c(O)c1 [Compound 13d, 4-Fluoro-N-[4-(2-hydroxy-4-methoxyphenyl)thiazol-2-yl]benzenesulfonamide] | > 50 |  |  |  |  |  |  |  | 
> 50 | > 50 | > 50 | 13.4 | > 50 | > 50 | > 50 | COc1ccc(-c2csc(NS(=O)(=O)c3ccc(Cl)cc3)n2)c(O)c1 [Compound 13e, 4-Chloro-N-[4-(2-hydroxy-4-methoxyphenyl)thiazol-2-yl]benzenesulfonamide] | > 50 |  |  |  |  |  |  |  | 
> 50 | 16.4 | 22.8 | 11 | > 50 | > 50 | > 50 | COc1ccc(-c2csc(NS(=O)(=O)c3ccc(Br)cc3)n2)c(O)c1 [Compound 13f, 4-Bromo-N-[4-(2-hydroxy-4-methoxyphenyl)thiazol-2-yl]benzenesulfonamide] | > 50 |  |  |  |  |  |  |  | 
> 50 | > 50 | > 50 | 47.8 | > 50 | > 50 | 30 | COc1ccc(-c2csc(NS(=O)(=O)c3ccc([N+](=O)[O-])cc3)n2)c(O)c1 [Compound 13g, N-[4-(2-Hydroxy-4-methoxyphenyl)thiazol-2-yl]-4-nitrobenzenesulfonamide] | 32.2 |  |  |  |  |  |  |  | 

Further lines, the compound ahead of its results:

SMILES | IC50 [2] [µM] | IC50 [3] [µM] | IC50 [4] [µM] | IC50 [5] [µM] | IC50 [6] [µM] | IC50 [7] [µM] | IC50 [8] [µM] | IC50 (BALB/3T3 cells [1]) [µM] | IC50 (BALB/3T3 cells [9]) [µM] | IC50 [10] [µM] | IC50 [11] [µM] | IC50 [12] [µM] | IC50 [13] [µM] | IC50 [14] [µM] | IC50 [15] [µM] | IC50 [16] [µM]
COc1ccc(-c2csc(NS(=O)(=O)c3ccc(C)cc3)n2)c(O)c1 [Compound 13b, N-[4-(2-Hydroxy-4-methoxyphenyl)thiazol-2-yl]-4-methylbenzenesulfonamide] | 22 | 27.4 | 38.7 | 14.1 | > 50 | > 50 | > 50 | > 50 |  |  |  |  |  |  |  | 
COc1ccc(S(=O)(=O)Nc2nc(-c3ccc(OC)cc3O)cs2)cc1 [Compound 13c, N-[4-(2-Hydroxy-4-methoxyphenyl)thiazol-2-yl]-4-methoxybenzenesulfonamide] | 4 | 5.8 | 15.8 | 4.4 | 22.5 | > 50 | 10 | 32.7 |  |  |  |  |  |  |  | 
O=c1[nH]cc(F)c(=O)[nH]1 [Compound 5-FU, 5-fluorouracil, reference compound] | 43.8 | 2.2 | 12.5 | 7.2 | > 50 | > 50 | 9.2 | 1 | 13 | 79.5 | 0.232 | 11.3 | 19.3 | 4.9 | 10.3 | 61
COc1ccc(-c2csc(NS(=O)(=O)c3ccccc3)n2)c(O)c1 [Compound 13a, N-[4-(2-Hydroxy-4-methoxyphenyl)thiazol-2-yl]benzenesulfonamide] | > 50 | > 50 | 31.1 | 20.7 | > 50 | > 50 | > 50 | > 50 |  |  |  |  |  |  |  | 
